Entries after “also recorded” stand apart in the source; their conditions may differ.
System: C. difficile M7404
Experiment: In vitro polydatin bioactivation and C. difficile antagonism by conditioned (spent) media of B. uniformis WT
Type: cell-based, Clostridioides difficile
Conditions: polydatin 500 μM, 1/2-diluted, C. difficile M7404 growth 12 h (FIG. 5A)
Description: FIGS. 5A and 5B show microbiome-mediated polyphenol aglycone liberation. […] Step 2: Spent media was filter-sterilized. Step 3: C. difficile was grown in spent media from either vehicle or polydatin (top). […]
The experimental media consisted of a modified YCFA media (mYCFA; casitone (2.5 g/L), yeast extract (0.625 g/L), cysteine (0.5 g/L), magnesium sulfate heptahydrate (f.c. 365 μM), calcium chloride dihydrate (f.c. 610 μM), sodium bicarbonate (4 g/L), dipotassium phosphate (0.45 g/L), monopotassium phosphate (0.45 g/L), sodium chloride (0.9 g/L), sodium acetate (2.71 g/L), Hemin (50 mg/L), Vitamin K1 (0.25 mg/L), ferrous sulfate (4 μg/mL), and ATCC vitamin mix (1% v/v)) supplemented with glucose (15 mM, Sigma) plus ½-diluted B. uniformis WT or AgshD conditioned media from growth with or without polydatin. C. difficile growth was monitored by measuring the optical density at 600 nm (OD600) of each culture in a 384 well plate with an Epoch2 spectrophotometer (BioTek Instruments) for 12 hours.

## OC[C@H]1O[C@@H](Oc2cc(O)cc(/C=C/c3ccc(O)cc3)c2)[C@H](O)[C@@H](O)[C@@H]1O [polydatin]
  anti-C. difficile activity of conditioned media from B. uniformis WT grown with polydatin: inhibited the growth of Clostridioides difficile in vitro; also recorded: generated potent anti-C.difficile activity
